Assay: Sensory evaluation of orange juice containing the agent
Details: ten panels
Experimental: Sensory evaluation of each drink was carried out by ten panels. […] The piercing aroma characteristic to aldehydes is a characteristic aroma common to every aldehyde and refers to an irritant off-smell giving an image of deteriorated oils and fats, soap, metals, Houttuynia cordata, etc. The judgment of smell was performed by comparing the effects at different concentrations of the acid taste and/or acid smell-reducing agent, and a concentration giving the highest acid taste/acid smell quality was selected.
To commercially available 100% orange juice was added (Z,Z)-4,7-tridecadienal as the acid taste and/or acid smell-reducing agent of the present invention in concentrations shown in the following Table 12 to give orange juice containing the agent, followed by sensory evaluation as in Example 1.

## CCCCC/C=C\C/C=C\CCC=O [(Z,Z)-4,7-tridecadienal]
0.005 ppt
  A: number of panels, acid taste/acid smell extreme and cause irritation: 10
  B: number of panels, acid taste/acid smell slightly strong and slightly cause irritation: 0
  C: number of panels, acid taste/acid smell slightly unpleasant: 0
  Flavor judgment: number of panels who judged acid taste/acid smell quality the highest: 0
  N: number of panels, irritation of acid reduced to give a mild acid taste: 0
  X: number of panels, acid taste reduced but piercing odor characteristic to aldehydes unpleasant: 0
0.02 ppt
  A: number of panels, acid taste/acid smell extreme and cause irritation: 9
  B: number of panels, acid taste/acid smell slightly strong and slightly cause irritation: 1
  C: number of panels, acid taste/acid smell slightly unpleasant: 0
  Flavor judgment: number of panels who judged acid taste/acid smell quality the highest: 0
  N: number of panels, irritation of acid reduced to give a mild acid taste: 0
  X: number of panels, acid taste reduced but piercing odor characteristic to aldehydes unpleasant: 0
0.1 ppt
  A: number of panels, acid taste/acid smell extreme and cause irritation: 8
  B: number of panels, acid taste/acid smell slightly strong and slightly cause irritation: 1
  C: number of panels, acid taste/acid smell slightly unpleasant: 1
  Flavor judgment: number of panels who judged acid taste/acid smell quality the highest: 0
  N: number of panels, irritation of acid reduced to give a mild acid taste: 0
  X: number of panels, acid taste reduced but piercing odor characteristic to aldehydes unpleasant: 0
0.2 ppt
  A: number of panels, acid taste/acid smell extreme and cause irritation: 6
  B: number of panels, acid taste/acid smell slightly strong and slightly cause irritation: 2
  C: number of panels, acid taste/acid smell slightly unpleasant: 2
  Flavor judgment: number of panels who judged acid taste/acid smell quality the highest: 0
  N: number of panels, irritation of acid reduced to give a mild acid taste: 0
  X: number of panels, acid taste reduced but piercing odor characteristic to aldehydes unpleasant: 0
0.5 ppt
  A: number of panels, acid taste/acid smell extreme and cause irritation: 0
  B: number of panels, acid taste/acid smell slightly strong and slightly cause irritation: 2
  C: number of panels, acid taste/acid smell slightly unpleasant: 2
  Flavor judgment: number of panels who judged acid taste/acid smell quality the highest: 1
  N: number of panels, irritation of acid reduced to give a mild acid taste: 6
  X: number of panels, acid taste reduced but piercing odor characteristic to aldehydes unpleasant: 0
1 ppb
  A: number of panels, acid taste/acid smell extreme and cause irritation: 0
  B: number of panels, acid taste/acid smell slightly strong and slightly cause irritation: 0
  C: number of panels, acid taste/acid smell slightly unpleasant: 2
  Flavor judgment: number of panels who judged acid taste/acid smell quality the highest: 0
  N: number of panels, irritation of acid reduced to give a mild acid taste: 4
  X: number of panels, acid taste reduced but piercing odor characteristic to aldehydes unpleasant: 4
1 ppt
  A: number of panels, acid taste/acid smell extreme and cause irritation: 0
  B: number of panels, acid taste/acid smell slightly strong and slightly cause irritation: 2
  C: number of panels, acid taste/acid smell slightly unpleasant: 2
  Flavor judgment: number of panels who judged acid taste/acid smell quality the highest: 1
  N: number of panels, irritation of acid reduced to give a mild acid taste: 6
  X: number of panels, acid taste reduced but piercing odor characteristic to aldehydes unpleasant: 0
5 ppt
  A: number of panels, acid taste/acid smell extreme and cause irritation: 0
  B: number of panels, acid taste/acid smell slightly strong and slightly cause irritation: 1
  C: number of panels, acid taste/acid smell slightly unpleasant: 2
  Flavor judgment: number of panels who judged acid taste/acid smell quality the highest: 4
  N: number of panels, irritation of acid reduced to give a mild acid taste: 7
  X: number of panels, acid taste reduced but piercing odor characteristic to aldehydes unpleasant: 0
10 ppb
  A: number of panels, acid taste/acid smell extreme and cause irritation: 0
  B: number of panels, acid taste/acid smell slightly strong and slightly cause irritation: 0
  C: number of panels, acid taste/acid smell slightly unpleasant: 1
  Flavor judgment: number of panels who judged acid taste/acid smell quality the highest: 0
  N: number of panels, irritation of acid reduced to give a mild acid taste: 3
  X: number of panels, acid taste reduced but piercing odor characteristic to aldehydes unpleasant: 6
20 ppt
  A: number of panels, acid taste/acid smell extreme and cause irritation: 0
  B: number of panels, acid taste/acid smell slightly strong and slightly cause irritation: 0
  C: number of panels, acid taste/acid smell slightly unpleasant: 3
  Flavor judgment: number of panels who judged acid taste/acid smell quality the highest: 4
  N: number of panels, irritation of acid reduced to give a mild acid taste: 7
  X: number of panels, acid taste reduced but piercing odor characteristic to aldehydes unpleasant: 0
50 ppb
  A: number of panels, acid taste/acid smell extreme and cause irritation: 0
  B: number of panels, acid taste/acid smell slightly strong and slightly cause irritation: 0
  C: number of panels, acid taste/acid smell slightly unpleasant: 1
  Flavor judgment: number of panels who judged acid taste/acid smell quality the highest: 0
  N: number of panels, irritation of acid reduced to give a mild acid taste: 2
  X: number of panels, acid taste reduced but piercing odor characteristic to aldehydes unpleasant: 7
100 ppt
  A: number of panels, acid taste/acid smell extreme and cause irritation: 0
  B: number of panels, acid taste/acid smell slightly strong and slightly cause irritation: 0
  C: number of panels, acid taste/acid smell slightly unpleasant: 4
  Flavor judgment: number of panels who judged acid taste/acid smell quality the highest: 0
  N: number of panels, irritation of acid reduced to give a mild acid taste: 4
  X: number of panels, acid taste reduced but piercing odor characteristic to aldehydes unpleasant: 2
500 ppt
  A: number of panels, acid taste/acid smell extreme and cause irritation: 0
  B: number of panels, acid taste/acid smell slightly strong and slightly cause irritation: 0
  C: number of panels, acid taste/acid smell slightly unpleasant: 3
  Flavor judgment: number of panels who judged acid taste/acid smell quality the highest: 0
  N: number of panels, irritation of acid reduced to give a mild acid taste: 4
  X: number of panels, acid taste reduced but piercing odor characteristic to aldehydes unpleasant: 3

— US20140120232A1, “ACID TASTE/ACID SMELL-REDUCING AGENT” (T. HASEGAWA CO., LTD., priority 2011, published 2014)
